According to paper PMC9959553, “Promising Antifungal Molecules against Mucormycosis Agents Identified from Pandemic Response Box®: In Vitro and In Silico Analyses” (Journal of Fungi, 2023):
In brackets after ≈: the same amount, converted by molar mass. Read-outs that look alike come from different tables or passages of the source.

Experiments:
[1] = Cytotoxicity assay (neutral red); format: cell-based, murine; settings: mouse, RAW 264.7 macrophage cells
Protocol: (§1) Cytotoxicity of alexidine, MMV1580844, MMV642550 and MMV019724 was performed using three cell lineages: RAW 264.7, a murine macrophage culture; A549, adenocarcinomic human alveolar basal epithelial cells; and HaCaT, a spontaneously transformed aneuploid immortal keratinocyte cell line from adult human skin. Cells were grown in DMEM (Dulbecco’s Modified Eagle’s Medium, Sigma-Aldrich, MO, USA), supplemented with 10% fetal bovine serum and incubated for 48 h at 37 °C with 5% CO2 in the presence of serially diluted concentrations (0.3–50 μM) of each compound. Cell viability was measured using the neutral red (NR) assay and quantified using a spectrophotometer at 595 nm (SpectraMax® i3x, Molecular Devices®, San José, CA, USA).

[2] = test system: R. oryzae, R. microsporus and R. stolonifer; assay: Antifungal susceptibility testing, values stated over the three species; format: cell-based; settings: over the three Rhizopus species
Protocol: (§2) The susceptibility of the Rhizopus species to MMV396785 (alexidine), MMV1580844, MMV642550 and MMV019724 was determined using the broth microdilution method, according to EUCAST protocols, with modifications. Posaconazole and amphotericin B were also used as reference antifungal drugs because they are commonly used for the treatment of mucormycosis. […] A standardized suspension of conidia (2 × 10^5/mL) was added to the wells and incubated for 48 h at 37 °C, in a 5% CO2 atmosphere. Fungal growth was analyzed via spectrophotometry readings at 600 nm and cell viability was assessed using the XTT reduction assay. Minimum inhibitory concentration (MIC) of each compound was defined as the lowest concentration that inhibits 50% of fungal growth, because these fungi are highly resistant to antifungal drugs and a reduction in half of their growth is relevant. […] MFC values were defined as the lowest drug concentration able to arrest fungal growth.

R. oryzae [3] = assay: Antifungal drug synergy assay, Bliss independence model; format: cell-based, Rhizopus oryzae; design: key to Interaction: S, synergistic interaction; A, antagonist interaction; Efficacy of Combined Drugs, E obs / Efficacy of Combined Drugs, E exp: concentration or dose not given beside the values; settings: for Efficacy of Drugs Alone (% of Inhibition), MIC50: at MIC50; for Efficacy of Drugs Alone (% of Inhibition), ½ MIC50: at ½ MIC50; for ΔE: Eobs minus Eexp; for Efficacy of Combined Drugs, E exp: expected by Bliss calculation
Protocol: (§3) Synergistic interactions were evaluated using the checkerboard method according to EUCAST guidelines (EUCAST 2008). R. oryzae conidia (2 × 10^5/mL) were grown in 96-well plates containing supplemented RPMI in the presence of the following selected compounds: […] An inhibition of at least 50% was defined as the cut-off for minimum inhibitory concentration (MIC). Interactions were determined by the fractional inhibitory concentration index (FICI), which was calculated using the following formula: (MIC combined/MIC drug A alone) + (MIC combined/MIC drug B alone). […] The Bliss independence model calculation was performed according to […] colleagues and Zhao and colleagues. The following formula was used to assess drug interaction: […] The results were classified as follows: synergistic effect when Eobs > Eexp; indifference when Eobs = Eexp; antagonistic effect when Eobs < Eexp.

[4] = Cytotoxicity assay (neutral red); format: cell-based; settings: human
Protocol: as §1

[5] = test system: R. stolonifer preformed biofilm; assay: Preformed biofilm assay; format: cell-based, Rhizopus stolonifer; settings: for Selectivity Index (SI), Preformed Biofilm: R. stolonifer, based on biofilm viability parameter
Protocol: (§4) For the preformed biofilm assay, cells were cultured as described above in the absence of the compounds. […] An additional incubation of 24 h at 37 °C was performed to evaluate the anti-biofilm activity. Evaluation of both biofilm formation and preformed biofilms was performed using three parameters as previously described. Crystal violet, safranin and XTT assays were used to analyze the overall biomass, extracellular matrix and metabolic activity, respectively.

R. oryzae UCP1295 [6] = assay: Antifungal drug synergy assay, checkerboard method (FICI); format: cell-based, Rhizopus oryzae; settings: Rhizopus arrhizus, UCP1295, 48 h; drug alone; read-out: MIC50 Alone
Protocol: as §3

R. stolonifer = assay: Antifungal susceptibility testing (broth microdilution, MIC and MFC); format: cell-based, Rhizopus stolonifer; settings: for Selectivity Index (SI), Planktonic Cell: R. stolonifer, from CC50 and MIC50 of planktonic cells; for MIC50 / MFC: Rhizopus stolonifer, 48 h; for MIC50: lowest concentration that inhibits 50% of fungal growth; for MFC: subculture in drug-free medium
Protocol: as §2

R. microsporus = assay: as above; format: cell-based, Rhizopus microsporus var. microsporus; settings: for Selectivity Index (SI), Planktonic Cell: R. microsporus, from CC50 and MIC50 of planktonic cells; for MIC50 / MFC: Rhizopus microsporus, 48 h; for MIC50: lowest concentration that inhibits 50% of fungal growth; for MFC: subculture in drug-free medium
Protocol: as §2

R. oryzae [7] = assay: as above; format: cell-based, Rhizopus oryzae; settings: for Selectivity Index (SI), Planktonic Cell: R. oryzae, from CC50 and MIC50 of planktonic cells; for MIC50 / MFC: Rhizopus arrhizus, 48 h; for MIC50: lowest concentration that inhibits 50% of fungal growth; for MFC: subculture in drug-free medium
Protocol: as §2

R. oryzae UCP1295 [8] = assay: Screening of the Pandemic Response Box library at 5 µM; format: cell-based, Rhizopus oryzae; settings: for inhibition at 5 µM: Rhizopus arrhizus, UCP1295, 48 h; for Viability Inhibition (XTT): XTT reduction
Procedure, shortened: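 Compounds at 5 μM in RPMI 1640 with 2% glucose and MOPS (0.165 mol/L, pH 7.2), with conidia at 2 × 10^5/mL, incubated 48 h at 37 °C in 5% CO2. Growth read by OD at 600 nm; hits defined as ≥60% inhibition. Posaconazole (5 μM) and 1% DMSO as controls.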

[9] = test system: R. microsporus preformed biofilm; assay: Preformed biofilm assay; format: cell-based, Rhizopus microsporus; settings: for Selectivity Index (SI), Preformed Biofilm: R. microsporus, based on biofilm viability parameter
Protocol: as §4

[10] = A549 alveolar basal epithelial cells, A549, 48 h
[11] = Table S1, mean of the four values, read-out: % of growth inhibition, Mean
[12] = optical density 600 nm, read-out: Growth Inhibition
[13] = preformed biofilm, 24 h treatment

Row | MIC [2] [µM] | Efficacy of Drugs Alone (% of Inhibition), MIC50 (R. oryzae [3]) | Efficacy of Drugs Alone (% of Inhibition), ½ MIC50 (R. oryzae [3]) | MIC (R. oryzae UCP1295 [6]) [µM] | MIC50 (R. stolonifer) [µM] | MIC50 (R. microsporus) [µM] | MIC50 (R. oryzae [7]) [µM] | SMILES | CC50 at 48 h [1] [µM] | Efficacy of Combined Drugs, E obs (R. oryzae [3]; combined with Amphotericin B) [%] | Interaction (R. oryzae [3]; combined with Amphotericin B) | ΔE (R. oryzae [3]; combined with Amphotericin B) [%] | Efficacy of Combined Drugs, E exp (R. oryzae [3]; combined with Amphotericin B) [%] | Efficacy of Combined Drugs, E obs (R. oryzae [3]; combined with Posaconazole) [%] | Interaction (R. oryzae [3]; combined with Posaconazole) | ΔE (R. oryzae [3]; combined with Posaconazole) [%] | Efficacy of Combined Drugs, E exp (R. oryzae [3]; combined with Posaconazole) [%] | CC50 at 48 h [4, 10] [µM] | CC50 at 48 h ([4]; HaCaT keratinocyte cells) [µM] | MFC (R. stolonifer) [µM] | MFC (R. microsporus) [µM] | other results
1 | 0.63 to 1.25 (≈ 0.283 to 0.562 µg/mL) | 62.0 % of Inhibition | 32.5 % of Inhibition | 0.63 | 1.25 (≈ 0.562 µg/mL) | 1.25 (≈ 0.562 µg/mL) | 0.63 (≈ 0.283 µg/mL) | Oc1c(C(Nc2nc3ccccc3s2)c2ccc(OC(F)F)cc2)ccc2cccnc12 (stereo not shown) [MMV019724] | > 50 | 74.8 | A | −7.3 | 82.1 | 58.0 | A | −5.6 | 63.6 | > 50 | > 50 | > 20 | > 20 | Selectivity Index (SI), Preformed Biofilm [5]: >40; Selectivity Index (SI), Planktonic Cell (R. stolonifer): >40; Selectivity Index (SI), Planktonic Cell (R. microsporus): >40; Selectivity Index (SI), Planktonic Cell (R. oryzae [7]): >79.4; MFC (R. oryzae [7]): > 20 µM; inhibition at 5 µM (R. oryzae UCP1295 [8]; [11]): 69.6%; inhibition at 5 µM (R. oryzae UCP1295 [8]; [12]): 70%; Viability Inhibition (XTT) (R. oryzae UCP1295 [8]): 77%; Selectivity Index (SI), Preformed Biofilm [9]: >40
2 | 0.63 to 1.25 (≈ 0.321 to 0.636 µg/mL) | 67.6 % of Inhibition | 21.5 % of Inhibition | 1.25 | 0.63 (≈ 0.321 µg/mL) | 1.25 (≈ 0.636 µg/mL) | 1.25 (≈ 0.636 µg/mL) | CCCCC(CC)CNC(=N)NC(=N)NCCCCCCNC(=N)NC(=N)NCC(CC)CCCC (stereo not shown) [MMV396785, Alexidine, reference compound] | > 50 | 85.9 | S | 1.7 | 84.2 | 91.9 | A | −4.7 | 96.6 | > 50 | > 50 | 10 (≈ 5.09 µg/mL) | 1.25 (≈ 0.636 µg/mL) | MFC [2]: 1.25 to 10 µM (≈ 0.636 to 5.09 µg/mL); Selectivity Index (SI), Preformed Biofilm ([5]; listed as Alexidina MMV396785): >20; concentration giving significant decrease in biofilm parameters [5, 13]: 4 × MIC; Selectivity Index (SI), Planktonic Cell (R. stolonifer; listed as Alexidina MMV396785): >79.4; Selectivity Index (SI), Planktonic Cell (R. microsporus; listed as Alexidina MMV396785): >40; Selectivity Index (SI), Planktonic Cell (R. oryzae [7]; listed as Alexidina MMV396785): >40; MFC (R. oryzae [7]): 10 µM (≈ 5.09 µg/mL); inhibition at 5 µM (R. oryzae UCP1295 [8]; [11]): 70.1%; inhibition at 5 µM (R. oryzae UCP1295 [8]; [12]): 70%; Viability Inhibition (XTT) (R. oryzae UCP1295 [8]): 89%; Viability Inhibition (XTT) (R. oryzae UCP1295 [8]; listed as alexidine): about 89%; Selectivity Index (SI), Preformed Biofilm ([9]; listed as Alexidina MMV396785): >20; concentration giving significant decrease in biofilm parameters [9, 13]: 2 × MIC

Row | SMILES | MIC [2] [µM] | Efficacy of Drugs Alone (% of Inhibition), MIC50 (R. oryzae [3]) | Efficacy of Drugs Alone (% of Inhibition), ½ MIC50 (R. oryzae [3]) | MIC (R. oryzae UCP1295 [6]) [µM] | MIC50 (R. stolonifer) [µM] | MIC50 (R. microsporus) [µM] | MIC50 (R. oryzae [7]) [µM] | CC50 at 48 h [1] [µM] | Efficacy of Combined Drugs, E obs (R. oryzae [3]; combined with Amphotericin B) [%] | Interaction (R. oryzae [3]; combined with Amphotericin B) | ΔE (R. oryzae [3]; combined with Amphotericin B) [%] | Efficacy of Combined Drugs, E exp (R. oryzae [3]; combined with Amphotericin B) [%] | Efficacy of Combined Drugs, E obs (R. oryzae [3]; combined with Posaconazole) [%] | Interaction (R. oryzae [3]; combined with Posaconazole) | ΔE (R. oryzae [3]; combined with Posaconazole) [%] | Efficacy of Combined Drugs, E exp (R. oryzae [3]; combined with Posaconazole) [%] | CC50 at 48 h [4, 10] [µM] | CC50 at 48 h ([4]; HaCaT keratinocyte cells) [µM] | MFC (R. stolonifer) [µM] | MFC (R. microsporus) [µM] | other results
3 | CCc1nc(N)nc(N)c1C#CC(C)c1cc(OC)cc(-c2ccncc2)c1 (stereo not shown) [MMV1580844] | 0.08 (≈ 0.0299 µg/mL) | 63.5 % of Inhibition | 12.6 % of Inhibition | 0.08 | 0.08 (≈ 0.0299 µg/mL) | 0.08 (≈ 0.0299 µg/mL) | 0.08 (≈ 0.0299 µg/mL) | > 50 | 60.5 | S | 2.3 | 58.2 | 60.2 | A | −17.4 | 77.6 | > 50 | > 50 | > 20 | > 20 | Selectivity Index (SI), Preformed Biofilm [5]: >312.5; Selectivity Index (SI), Planktonic Cell (R. stolonifer): >625; Selectivity Index (SI), Planktonic Cell (R. microsporus): >625; Selectivity Index (SI), Planktonic Cell (R. oryzae [7]): >625; MFC (R. oryzae [7]): > 20 µM; inhibition at 5 µM (R. oryzae UCP1295 [8]; [11]): 70.2%; inhibition at 5 µM (R. oryzae UCP1295 [8]; [12]): 71%; Viability Inhibition (XTT) (R. oryzae UCP1295 [8]): 88%; Selectivity Index (SI), Preformed Biofilm [9]: >156.3
